From article PMC8341922, “Glycosylated cyclophellitol-derived activity-based probes and inhibitors for cellulases” (RSC Chemical Biology, 2020) come the findings set out here.

In one series the target is T1, XynC (Aspergillus niger, UniProt A2QFV7).
T1 construct: gene xlnC; native, in xylan-grown A. niger secretome; about 35 kDa band
In words: biotin-avidin pulldown, label-free LC-MS/MS quantification. Particulars: covalent; labelled compound; native secretome, 37 °C, 2 h. The class given is binding.

Another series deals with T2, CbhB (Aspergillus niger, UniProt Q9UVS8).
T2 construct: native, in xylan-grown A. niger secretome; about 80 kDa band
T2 sequence (Q9UVS8 22-536): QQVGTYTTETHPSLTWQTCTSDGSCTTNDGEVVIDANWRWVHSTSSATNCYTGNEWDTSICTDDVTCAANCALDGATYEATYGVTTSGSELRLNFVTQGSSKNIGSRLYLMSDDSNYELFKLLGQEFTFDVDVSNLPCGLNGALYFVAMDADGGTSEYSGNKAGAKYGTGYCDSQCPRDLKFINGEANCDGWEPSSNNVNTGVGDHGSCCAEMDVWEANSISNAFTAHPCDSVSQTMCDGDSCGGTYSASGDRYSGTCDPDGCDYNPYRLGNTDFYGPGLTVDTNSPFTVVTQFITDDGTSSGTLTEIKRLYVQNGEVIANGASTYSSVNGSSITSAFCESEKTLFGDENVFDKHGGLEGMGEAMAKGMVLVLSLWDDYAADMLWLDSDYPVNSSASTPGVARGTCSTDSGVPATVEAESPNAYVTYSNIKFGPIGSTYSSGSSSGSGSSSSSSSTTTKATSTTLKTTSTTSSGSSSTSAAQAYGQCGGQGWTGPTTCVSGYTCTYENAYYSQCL
The series is described as above. The format is binding. Particulars: covalent; labelled compound; native secretome, 37 °C, 2 h.

The next series addresses T3, CbhA (Aspergillus niger, UniProt Q9UVS9).
T3 construct: native, in xylan-grown A. niger secretome; about 60 kDa band
T3 sequence (Q9UVS9 18-452): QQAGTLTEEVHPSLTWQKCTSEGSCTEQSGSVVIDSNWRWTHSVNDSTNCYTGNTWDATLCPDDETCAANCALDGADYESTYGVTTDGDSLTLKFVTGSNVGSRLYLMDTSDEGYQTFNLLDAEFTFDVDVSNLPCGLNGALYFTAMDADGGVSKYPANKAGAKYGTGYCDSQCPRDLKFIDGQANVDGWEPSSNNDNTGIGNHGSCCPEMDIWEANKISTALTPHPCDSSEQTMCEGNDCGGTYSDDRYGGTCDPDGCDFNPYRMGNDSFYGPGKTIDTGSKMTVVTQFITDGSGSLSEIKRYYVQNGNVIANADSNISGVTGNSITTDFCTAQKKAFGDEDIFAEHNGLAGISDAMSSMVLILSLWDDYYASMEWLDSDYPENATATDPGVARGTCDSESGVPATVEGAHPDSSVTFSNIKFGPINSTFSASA
Described as above. The format is binding. Particulars: covalent; labelled compound; native secretome, 37 °C, 2 h.

Series [1] deals with T4, HiCel7B (Mycothermus thermophilus, UniProt P56680).
T4 construct: gene CEL7B; purified enzyme, gift from Novozymes; deglycosylated for crystals
T4 sequence (P56680 1-402): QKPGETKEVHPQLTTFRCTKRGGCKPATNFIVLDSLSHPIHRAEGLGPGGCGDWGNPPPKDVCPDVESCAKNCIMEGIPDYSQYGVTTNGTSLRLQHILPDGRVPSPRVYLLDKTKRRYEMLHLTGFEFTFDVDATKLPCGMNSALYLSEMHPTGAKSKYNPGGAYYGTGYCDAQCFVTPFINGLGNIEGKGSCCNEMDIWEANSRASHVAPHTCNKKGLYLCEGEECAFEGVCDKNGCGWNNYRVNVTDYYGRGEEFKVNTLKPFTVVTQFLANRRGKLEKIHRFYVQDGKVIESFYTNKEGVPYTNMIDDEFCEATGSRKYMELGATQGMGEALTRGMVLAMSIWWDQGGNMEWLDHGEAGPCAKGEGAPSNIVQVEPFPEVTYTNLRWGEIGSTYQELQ
As to the kind of experiment: continuous fluorescence inhibition kinetics with 4MU-GG, kapp vs [inhibitor]. The class given is biochemical. Particulars: covalent, 50 mM sodium phosphate pH 7, 25 °C, 50 μM 4MU-GG, corrected for substrate KM, read-out: HiCel7B / K I. From the text: continuous fluorescence inhibition kinetics with 4MU-GG, kapp vs [inhibitor] on HiCel7B

Series [2] has as its target T4, HiCel7B. In words: continuous fluorescence inhibition kinetics with 4MU-GG, kapp vs [inhibitor]; also intact MS and crystal structure. Particulars: covalent; 50 mM sodium phosphate pH 7, 25 °C; 50 μM 4MU-GG; corrected for substrate KM; nucleophile E197; read-out: HiCel7B / K I. The format is biochemical. The text has this:
continuous fluorescence inhibition kinetics with 4MU-GG, kapp vs [inhibitor]; also intact MS and crystal structure on HiCel7B

Substrate in series [3]: Cc1cc(=O)oc2cc(O[C@@H]3O[C@H](CO)[C@@H](O[C@@H]4O[C@H](CO)[C@@H](O)[C@H](O)[C@H]4O)[C@H](O)[C@H]3O)ccc12
In words: fluorescence, 4-methylumbelliferone release. The class given is biochemical, Mycothermus thermophilus. Particulars: 50 mM sodium phosphate pH 7, 25 °C, corrected for inner filter effect. From the text: fluorescence, 4-methylumbelliferone release on HiCel7B | The KM value for the interaction of HiCel7B with 4MU-GG under the assay conditions

`O=C(CCCC[C@@H]1SC[C@@H]2NC(=O)N[C@@H]21)NCCOCCOCCOCC(=O)N[C@H]1[C@H](O)[C@@H](O)[C@H](O[C@H]2[C@H](O)[C@@H](O)[C@@H]3O[C@@H]3[C@@H]2CO)O[C@@H]1CO` [compound 15, probe 15]: the “biotin-avidin pulldown, label-free LC-MS/MS quantification” value at XynC is “relative to the negative control were CbhA, CbhB, and XynC”; at CbhB, “detected at elevated levels in the probe 15-treated samples relative to the negative control were CbhA, CbhB”; at CbhA, “detected at elevated levels in the probe 15-treated samples relative to the negative control were CbhA”.

Regarding `[N-]=[N+]=NCCOCCOCCOCC(=O)N[C@H]1[C@H](O)[C@@H](O)[C@H](O[C@H]2[C@H](O)[C@@H](O)[C@@H]3O[C@@H]3[C@@H]2CO)O[C@@H]1CO` [compound 13, probe 13], the KI (inactivation) at HiCel7B [1] was determined as 3.9 ± 0.3 µM. `OC[C@@H]1C(O[C@@H]2O[C@H](CO)[C@@H](O)[C@H](O)[C@H]2O)C(O)C(O)[C@@H]2O[C@H]12` (stereo partly shown) [compound 1, Cellobiose configured cyclophellitol]: the KI (inactivation) on HiCel7B [2] worked out at 31 ± 4 µM.

On to `OC[C@@H]1C(O[C@@H]2O[C@H](CO)[C@@H](O[C@@H]3O[C@H](CO)[C@@H](O)[C@H](O)[C@H]3O)[C@H](O)[C@H]2O)C(O)C(O)[C@@H]2O[C@H]12` (stereo partly shown) [compound 5, inhibitor 5], for which the KI (inactivation) on HiCel7B [1] (compound also hydrolysed internally by the enzyme) came out at 1.9 ± 0.3 µM.

B1: HiCel7B (Mycothermus thermophilus) (protein)
chain: T4 sequence (P56680 1-402)
notes: purified enzyme, gift from Novozymes; deglycosylated for crystals
In general, Km refers to the substrate concentration at which the rate is half of its maximum. Turning to B1, in series [3], the Km amounted to 76 µM.
